This is an account of results in patent publication EP4745242A1, “NUCLEIC ACID VECTOR, NUCLEIC ACID DRUG, PREPARATION METHOD THEREFOR, AND USE THEREOF” (Bai Yao Zhi Da (Beijing) Nanobio Technology Co., Ltd., priority 2023, dated 2025).

The nature of this data set: Example 41: body weight and clinical observations. The class given is in vivo, BALB/cCrSlcNifdc mice. Particulars: for Individual animal body weight: single mouse per group. The protocol: • a) General clinical observations: The clinical condition of mice was observed three times per week during the study, including assessment of tumor nodule ulceration, general appearance/behavior, coat condition, and food intake. • b) Body weight: Mouse body weight was recorded three times per week. • c) Tumor volume: Tumor volume was measured three times per week using vernier calipers. The longest diameter (length) and the perpendicular short diameter (width) were measured, and tumor volume was calculated as: Volume = 0.5 × length × (short diameter)^2. […] The tumor-weight inhibition rate (IRTW, %) was calculated, taking IRTW% > 60% as a reference indicator of efficacy. The calculation is as follows: IRTW(%) = (Wvehicle control−Wtreatment)/Wvehicle control × 100, [formula] where W denotes tumor weight.

Structures are written as SMILES.

Regarding `COc1cccc2c1C(=O)c1c(O)c3c(c(O)c1C2=O)C[C@@](O)(C(=O)CO)C[C@@H]3O[C@H]1C[C@H](N)[C@@H](O)[C@H](C)O1` [F, epirubicin], for the setting “one animal per group, D26, 26 days after tumor cell injection, in g (unit assumed)”, the “Animal body weight, D26” value worked out at 26.81. Further, the “Change in body weight (g)” value (one animal per group, before administration to D26) is “+6.39 g”. Also, the “Animal body weight, Before administration” value (one animal per group, tail-vein injection once weekly, total 2 administrations, before administration) came out at 20.42. Further, the “Individual animal body weight” value came to 20.42 (DAY 12, in g (unit assumed)); 22.15 (DAY 14, in g (unit assumed)); 23.68 (DAY 17, in g (unit assumed)); 25.41 (DAY 19, in g (unit assumed)); 26.51 (DAY 21, in g (unit assumed)); 29.19 (DAY 24, in g (unit assumed)). Further, the “Individual animal body weight” value (DAY 26, in g (unit assumed)) came out at 26.81.
